Experimental data as given in US7285555B2, “6-aryl-7-halo-imidazo[1,2-a]pyrimidines as anticancer agents” (Wyeth Holdings Corporation, priority 2003, dated 2007).

Experiments:
[1] = tested on: S1-M1 cells; assay: MTS cytotoxicity test procedure with S1-M1 cells; type: cell-based, human; settings: for Ratio: IC50 on S1-M1 cells/IC50 on S1 cells
Description: (§1) Human cancer cell lines, unless otherwise noted, are obtained from the American Type Culture Collection (Rockville, Md.). The following drug-sensitive parental cell lines, and their derived drug-resistant counterparts, are obtained from the originators as listed: (a) S1 (parental line from a subclone of human colon carcinoma line LS174T) and derived S1-M1-3.2 (herein called S1-M1) which expresses the MXR drug transporter protein, are provided by Dr. L. Greenberger, Wyeth Research (Rabindran, S. K., He, H., Singh, M., Brown, E., Collins, K. I., Annable, T., and Greenberger, L. M. Reversal of a novel multidrug resistance mechanism in human colon carcinoma cells by fumitremorgin C. Cancer Res., 58: 5850-5858,1998); (b) parental HL-60 human promyelocytic leukemia line and derived HL-60/ADR, which expresses the MRP1 drug transporter protein, are provided by Dr. M. Center, University of Kansas (McGrath, T., and Center, M. S. Adriamycin resistance in HL60 cells in the absence of detectable P-glycoprotein. Biochem. Biophys. […] J. Biol. Chem., 261: 7762-7770, 1986) via Dr. L. Greenberger, Wyeth Research.
(§2) The MTS assay, which is sold in kit form by Promega (Madison, Wis.; CellTiter 96 AQueous Non-Radioactive Cell Proliferation Assay), is based on the conversion by viable cells, but not by dead cells, of the tetrazolium salt, MTS (3-(4,5-dimethylthiazol-2-yl)-5-(3-carboxymethoxyphenyl)-2-(4-sulphophenyl)-2H-tetrazolium, inner salt), into a water-soluble colored formazan which is detected by spectrophotometry. Compounds are tested at nine concentrations, in order to determine IC50 values. For the test procedure, cells are harvested by trypsinization (or, in the case of non-adherent cells, by simple resuspension), washed, counted and distributed to wells of 96-well flat-bottom microtiter plates at 1000 cells per well in 200 μL of medium. In addition, one row of wells on a separate plate receives cells as above (“time 0” plate). All plates are incubated at 370 in humidified 5% CO2 in air for about 24 hr.
(§3) On day 2, compounds for test are diluted and added to wells. Compounds are dissolved in DMSO at 10 mg/mL. For each compound, nine serial 2-fold dilutions are prepared in DMSO. Ten μL of each dilution in DMSO is transferred to 100 μL of medium, mixed well, and then 5 μL of this dilution is transferred in quadruplicate to wells containing cells. […] Plates are returned to the incubator for three days. At the time of drug addition to the experimental plates, the MTS assay is run on the “time 0” plate.
(§4) After three days of culture with test compounds (day 5 overall), the MTS assay is done on all wells of the experimental plates. The absorbance values of the quadruplicate sample wells are averaged and divided by the average of the “time 0” values. […]

[2] = tested on: S1 cells; assay: MTS cytotoxicity test procedure with S1 cells; type: cell-based; settings: Homo sapiens, MTS assay, means of 2 independent experiments
Description: (§5) Human cancer cell lines, unless otherwise noted, are obtained from the American Type Culture Collection (Rockville, Md.). […]
(§6) The MTS assay, which is sold in kit form by Promega (Madison, Wis.; CellTiter 96 AQueous Non-Radioactive Cell Proliferation Assay), is based on the conversion by viable cells, but not by dead cells, of the tetrazolium salt, MTS (3-(4,5-dimethylthiazol-2-yl)-5-(3-carboxymethoxyphenyl)-2-(4-sulphophenyl)-2H-tetrazolium, inner salt), into a water-soluble colored formazan which is detected by spectrophotometry. […] For the test procedure, cells are harvested by trypsinization (or, in the case of non-adherent cells, by simple resuspension), washed, counted and distributed to wells of 96-well flat-bottom microtiter plates at 1000 cells per well in 200 μL of medium. […]
as §4

[3] = tested on: KB-V1 cells; assay: MTS cytotoxicity test procedure with KB-V1 cells; type: cell-based, human; settings: MTS assay
Description: as §1
The MTS assay, which is sold in kit form by Promega (Madison, Wis.; CellTiter 96 AQueous Non-Radioactive Cell Proliferation Assay), is based on the conversion by viable cells, but not by dead cells, of the tetrazolium salt, MTS (3-(4,5-dimethylthiazol-2-yl)-5-(3-carboxymethoxyphenyl)-2-(4-sulphophenyl)-2H-tetrazolium, inner salt), into a water-soluble colored formazan which is detected by spectrophotometry. Compounds are tested at nine concentrations, in order to determine IC50 values. For the test procedure, cells are harvested by trypsinization (or, in the case of non-adherent cells, by simple resuspension), washed, counted and distributed to wells of 96-well flat-bottom microtiter plates at 1000 cells per well in 200 μL of medium. […]
as §4

[4] = tested on: COLO 205 cells; assay: MTS cytotoxicity test procedure with COLO 205 cells; type: cell-based; settings: Homo sapiens, 72 h, MTS assay, three days of culture
Protocol: as §2
On day 2, compounds for test are diluted and added to wells. Compounds are dissolved in DMSO at 10 mg/mL. For each compound, nine serial 2-fold dilutions are prepared in DMSO. Ten μL of each dilution in DMSO is transferred to 100 μL of medium, mixed well, and then 5 μL of this dilution is transferred in quadruplicate to wells containing cells. The final high concentration of each compound is typically 1-5 μM. Plates are returned to the incubator for three days. At the time of drug addition to the experimental plates, the MTS assay is run on the “time 0” plate. This gives the “time 0 MTS value” which is related to the number of viable cells per well at the time of drug addition.
After three days of culture with test compounds (day 5 overall), the MTS assay is done on all wells of the experimental plates. The absorbance values of the quadruplicate sample wells are averaged and divided by the average of the “time 0” values. The average of control wells without drug, divided by the average “time 0” value, gives the maximal relative increase in MTS color yield due to cell growth during the final three days of culture. The average of control wells with high drug concentration, divided by the “time 0” value, gives the minimal relative color yield for cells that were completely killed. The nine values for each compound are plotted against concentration, and the concentration that produces a relative color yield half way between the maximum and minimum is taken as the IC50 value.
COLO 205 is a human colon carcinoma cell line that is used for comparative testing of the examples of this invention and several reference compounds (Table 1). This line is sensitive to paclitaxel and vincristine.

[5] = tested on: HL-60/ADR cells; assay: MTS cytotoxicity test procedure with HL-60/ADR cells; type: cell-based, human; settings: for Ratio: IC50 on HL-60/ADR cells/IC50 on HL-60 cells
Description: as §1, §2, §3
After three days of culture with test compounds (day 5 overall), the MTS assay is done on all wells of the experimental plates. The absorbance values of the quadruplicate sample wells are averaged and divided by the average of the “time 0” values. […] The nine values for each compound are plotted against concentration, and the concentration that produces a relative color yield half way between the maximum and minimum is taken as the IC50 value.
HL-60/ADR cells overexpress the multidrug resistance protein MRP1 which mediates resistance to some chemotherapeutics (Gottesman, M. M., Fojo, T., and Bates, S. E. Multidrug resistance in cancer: role of ATP-dependent transporters. Nature Rev. Cancer, 2: 48-58, 2002). The IC50 values of example 6 of this invention, as well as reference compounds, on HL-60/ADR are compared to values on the sensitive parental HL-60 line.

[6] = tested on: KB cells; assay: MTS cytotoxicity test procedure with KB cells; type: cell-based; settings: Homo sapiens, MTS assay, means of 2 independent experiments
Description: as §5, §6, §4

[7] = tested on: KB-8-5 cells; assay: MTS cytotoxicity test procedure with KB-8-5 cells; type: cell-based, human; settings: MTS assay
Description: as §5, §6, §4

## CN(C)CCCOc1cc(F)c(-c2c(Cl)nc3nccn3c2C2CCCCCC2)c(F)c1 [Example 6, 3-[4-(7-Chloro-5-cycloheptylimidazo[1,2-a]pyrimidin-6-yl)-3,5-difluorophenoxy]-N,N-dimethylpropan-1-amine]
[1]; Homo sapiens, MTS assay, S1-M1 cells, means of 2 independent experiments
  IC50: 0.068 µM
[1]
  Ratio: 1.1
[1]; listed as example 6
  Ratio: no resistance
[2]
  IC50: 0.063 µM
[3]; Homo sapiens, KB-V1, KB VI cells, means of 2 independent experiments
  IC50: 0.204 µM
[3]; IC50 on KB VI cells/IC50 on KB cells
  Ratio VI/KB: 4.6
[4]
  IC50: 0.045 µM
[5]; Homo sapiens, HL60/ADR, MTS assay, HL-60/ADR cells, means of 2 independent experiments
  IC50: 0.029 µM
[5]
  Ratio: 0.55
[5]; listed as example 6
  Ratio: no resistance
[6]
  IC50: 0.044 µM
[7]; Homo sapiens, KB 8.5 cells, means of 2 independent experiments
  IC50: 0.063 µM
[7]; IC50 on KB 8.5 cells/IC50 on KB cells
  Ratio 8.5/KB: 1.4
